Measurements from patent US7425533B2, “Modified hirudin proteins and T-cell epitopes in hirudin” (Merck Patent GmbH, priority 2003, dated 2008).
Several values for one entry are separate records, joined by “and”; a condition that tells them apart may be missing. Equal values may be shown once. Values belong to the molecule of their own block, whether it stands above or below them.

Legend:
human PBMCs = assay: T-cell epitope mapping, PBMC proliferation (tritiated thymidine) with 15 mer hirudin peptides; format: cell-based; settings: for donor response (SI>2): initial analysis, 25 donor samples, peptides at 1 μM and 10 μM, 7 days
PBMC from healthy donors = assay: time-course T-cell assay, PBMC proliferation with WT and variant peptides; format: cell-based, human; settings: cohorts of 20 healthy donors, SI>2 at any time point, days 6, 7, 8 and 9
Description: “Time course assay” refers to a biological assay such as a proliferation assay in which determinations of activity are made sequentially over a period of time. In the present context, a “time course T-cell assay”, refers to the determination of T-cell proliferation in response to a test immunogen (peptide) at multiple times following exposure to the test immunogen. The terms “time course T-cell assay” and “time course immunogenicity assay” may be used interchangeably herein.
Bulk cultures of 2-4×10^6 PBMC/well were established from 20 healthy donor samples in 24 well plates. Cells were incubated for 6 to 9 days with WT and variant peptides spanning the immunogenic regions (see Table 4). T cell proliferation was assessed by tritiated thymidine incorporation on days 6, 7, 8 and 9. Proliferation was assessed at each time point, by gently resuspending the bulk cultures and removing samples of PBMC, that were then incubated in triplicate wells of U-bottomed 96 well plate with 1 μCi/well tritiated thymidine for 18 hours as described above.
The time course assay was used to test variant peptides containing substitutions over WT. Substitutions were made at key locations where there was expectation that the substitution would prevent binding to MHC class II and therefore, subsequent T cell proliferation in the assay. FIG. 2 and FIG. 3 respectively show exemplary donor responses over the time course and overall response frequencies.

serine protease thrombin = serine protease thrombin (Homo sapiens, UniProt P00734); settings: native hirudin; cited from earlier work
[1] = cited from earlier work
thrombin = target: T1, thrombin (Homo sapiens, UniProt P00734); assay: chromogenic thrombin inhibition assay; format: biochemical; settings: chromogenic substrate H-D-Phe-Pep-Arg-pNA, 37° C., relative to WT hirudin
T1 construct: purchased Diagnostica Stago (via Axis Shield Diagnostics, Dundee, UK) Stachrom HCII assay kit (catalogue number not given)
Description: A “thrombin inhibition assay” according to the present context means an in vitro assay able to provide a reading of the functional capability of the test protein. In the present instance this means the ability of a given hirudin mutein to evoke a specific measurable chromogenic response. Particularly suitable assays are exemplified herein using thrombin and the chromogenic thrombin substrate H-D-Phe-Pep-Arg-pNA. Other assay formats can be contemplated to also provide quantitative estimations of specific activity of the test molecules and permit ED50 determinations. […]
The functional activity of the modified hirudin proteins was assessed using a chromogenic thrombin inhibition assay. […] The chromogenic substrate H-D-Phe-Pep-Arg-pNA is then added and any residual free thrombin present will cleave the substrate to form H-D-Phe-Pep-Arg-OH and pNA that can then be detected spectrophotometrically at 405 nm […]
The plate was warmed to 37° C. for 5 minutes followed by addition of 40 μl thrombin and incubated for 120 seconds at 37° C. with shaking. […] 40 μl acetic acid was added to quench reaction and the plate was read spectrophotometrically at 405 nm. Absorbance at 405 nm vs hirudin concentration was plotted using Sigma plot (Sigma Poole, UK) and IC50 values calculated by fitting a sigmoidal equation. […]

Molecule: 10: 15 mer hirudin peptide GNKCILGSDGEKNQC, SEQ ID NO: 96 (hirudo medicinalis) [Peptide 10]
donor response (SI>2) (human PBMCs): 8%

Molecule: 15: 15 mer hirudin peptide VTGEGTPKPESHNDG, SEQ ID NO: 101 (hirudo medicinalis) [Peptide 15]
final response rate (human PBMCs; across a total of 55 donor samples): 4% | donor response (SI>2) (human PBMCs): 8%

Molecule: CAAGSDGEKNQCVTG (modified hirudin sequence)
% donor response in time course (PBMC from healthy donors): 5%

Molecule: CEKGSDGEKNQCVTG (modified hirudin sequence)
% donor response in time course (PBMC from healthy donors): 10%

Molecule: CILGSDGEKNQCVTG (hirudo medicinalis) [reference compound]
% donor response in time course (PBMC from healthy donors): 25%

Molecule: CRHGSDGEKNQCVTG (modified hirudin sequence)
% donor response in time course (PBMC from healthy donors): 5%

Molecule: Hirudin
Ki (serine protease thrombin): 10^−11 to 10^−14 M

Molecule: [Leu^1, Thr^2]-63-desulphohirudin [lepirudin]
fatal outcomes ([1]; among the severe anaphylaxis cases, previous treatment course 1 to 12 weeks earlier): 4 | patients judged to have had severe anaphylaxis ([1]; between 1994 and 2002, within minutes of intravenous administration): 9 patients

Relative Activity (Ratio of variant IC50/WT IC50) (thrombin): 0.70
B1: M 25: hirudin mutein I29R L30R, SEQ ID NO: 28 (protein)
chain: VVYTDCTESGQNLCLCEGSVVCGQGNKCRRGSDGEKNQCVTGEGTPKPESHNDGDFEEIPEEYLQ
modifications: ends and bridges not checked

Relative Activity (Ratio of variant IC50/WT IC50) (thrombin): 1.0 and 0.55
B2: M 19: hirudin mutein I29E L30K, SEQ ID NO: 22 (protein)
chain: VVYTDCTESGQNLCLCEGSVVCGQGNKCEKGSDGEKNQCVTGEGTPKPESHNDGDFEEIPEEYLQ
modifications: ends and bridges not checked
